# Columns and labels:
# Assay type in all cases: in vivo
# [1] = test system: field corn (Zea mays L., var. Dekalb 535, CORN); assay: Pre-emerge test, crop safety; conditions: pre-emerge, rated 14 days after application, 0 = no damage, 100 = complete death
# Outline: (§1)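 Visual ratings on a 0-100 scale (0 no damage, 100 all plants dead) were taken at 14 days after treatment. Rates of 15-1000 g ai/ha in acetone, 187 l/ha, were sprayed onto soil one day after planting (pre-emerge) or onto 2-3 leaf plants with 0.25% v/v surfactant (post-emerge).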
# [2] = test system: upland rice (Oryza sp., var. Tebonnet, RICE); assay: Pre-emerge test, crop safety; conditions: pre-emerge, rated 14 days after application, 0 = no damage, 100 = complete death
# Outline: as §1
# [3] = test system: field corn (Zea mays L., var. Dekalb 535, CORN); assay: Post-emerge test, crop safety; conditions: phytotoxicity rating 0-100 (0 no damage, 100 complete death), 14 days after application
# Outline: as §1
# [4] = test system: upland rice (Oryza sp., var. Tebonnet, RICE); assay: Post-emerge test, crop safety; conditions: phytotoxicity rating 0-100 (0 no damage, 100 complete death), 14 days after application
# Outline: as §1
# [5] = test system: barnyardgrass (Echinochloa crus-galli, ECHCG); assay: Pre-emerge test, greenhouse herbicide activity screening; conditions: pre-emerge, rated 14 days after application, 0 = no damage, 100 = complete death
# Outline: as §1
# [6] = test system: ivyleaf morningglory (Ipomoea hederacea, IPOHE); assay: as above; conditions: pre-emerge, rated 14 days after application, 0 = no damage, 100 = complete death
# Outline: as §1
# [7] = test system: common ragweed (Ambrosia artemisizfolia L., AMBEL); assay: as above; conditions: pre-emerge, rated 14 days after application, 0 = no damage, 100 = complete death
# Outline: as §1
# [8] = test system: velvetleaf (Abutilon theophrasti, ABUTH); assay: as above; conditions: pre-emerge, rated 14 days after application, 0 = no damage, 100 = complete death
# Outline: as §1
# [9] = test system: green foxtail (Setaria viridis, SETVI); assay: as above; conditions: pre-emerge, rated 14 days after application, 0 = no damage, 100 = complete death
# Outline: as §1
# [10] = test system: large crabgrass (Digitaria sanguinalis, DIGSA); assay: as above; conditions: pre-emerge, rated 14 days after application, 0 = no damage, 100 = complete death
# Outline: as §1
# [11] = test system: lambsquarters (Chenopodium album, CHEAL); assay: as above; conditions: pre-emerge, rated 14 days after application, 0 = no damage, 100 = complete death
# Outline: as §1
# [12] = test system: johnsongrass (Sorghum halepense, SORHA); assay: as above; conditions: pre-emerge, rated 14 days after application, 0 = no damage, 100 = complete death
# Outline: as §1
# [13] = test system: sicklepod (Cassia obtusifolia, CASOB); assay: as above; conditions: pre-emerge, rated 14 days after application, 0 = no damage, 100 = complete death
# Outline: as §1
# [14] = test system: redroot pigweed (Amaranthus retroflexus, AMARE); assay: as above; conditions: pre-emerge, rated 14 days after application, 0 = no damage, 100 = complete death
# Outline: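 Rating: 0–100 visual injury, 14 DAA. Application: acetone, 187 l/ha, 15–1000 g ai/ha, flat-fan track sprayer with nozzle 40–45 cm above soil or canopy. Post-emerge runs used 0.25% v/v surfactant on 2–3 leaf plants.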
# [15] = test system: barnyardgrass (Echinochloa crus-galli, ECHCG); assay: Post-emerge test, greenhouse herbicide activity screening; conditions: phytotoxicity rating 0-100 (0 no damage, 100 complete death), 14 days after application
# Outline: (§2)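 Herbicidal damage is scored 0 (none) to 100 (complete plant death) two weeks after a simulated field spray. Rates span 15–1000 g ai/ha, delivered in acetone at 187 l/ha. For post-emergence treatments, plants have 2–3 leaves and the spray carries 0.25% v/v non-ionic surfactant.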
# [16] = test system: ivyleaf morningglory (Ipomoea hederacea, IPOHE); assay: as above; conditions: phytotoxicity rating 0-100 (0 no damage, 100 complete death), 14 days after application
# Outline: as §2
# [17] = test system: common ragweed (Ambrosia artemisizfolia L., AMBEL); assay: as above; conditions: phytotoxicity rating 0-100 (0 no damage, 100 complete death), 14 days after application
# Outline: as §2
# [18] = test system: velvetleaf (Abutilon theophrasti, ABUTH); assay: as above; conditions: phytotoxicity rating 0-100 (0 no damage, 100 complete death), 14 days after application
# Outline: as §2
# [19] = test system: green foxtail (Setaria viridis, SETVI); assay: as above; conditions: phytotoxicity rating 0-100 (0 no damage, 100 complete death), 14 days after application
# Outline: as §2
# [20] = test system: large crabgrass (Digitaria sanguinalis, DIGSA); assay: as above; conditions: phytotoxicity rating 0-100 (0 no damage, 100 complete death), 14 days after application
# Outline: as §2
# [21] = test system: lambsquarters (Chenopodium album, CHEAL); assay: as above; conditions: phytotoxicity rating 0-100 (0 no damage, 100 complete death), 14 days after application
# Outline: as §2
# [22] = test system: redroot pigweed (Amaranthus retroflexus, AMARE); assay: as above; conditions: phytotoxicity rating 0-100 (0 no damage, 100 complete death), 14 days after application
# Outline: as §2
# [23] = test system: johnsongrass (Sorghum halepense, SORHA); assay: as above; conditions: phytotoxicity rating 0-100 (0 no damage, 100 complete death), 14 days after application
# Outline: as §2
# [24] = test system: sicklepod (Cassia obtusifolia, CASOB); assay: as above; conditions: phytotoxicity rating 0-100 (0 no damage, 100 complete death), 14 days after application
# Outline: as §2
structure (smiles),measurement,setting,value
COc1c(Cl)cc(F)c(-n2c(=O)cc(C(F)(F)F)n(N)c2=O)c1N [Compound 1-13],"Pre-emerge crop damage CORN (phytotoxicity rating, scale 0-100)",[1]; 63 g ai/ha,60
same,"Pre-emerge crop damage CORN (phytotoxicity rating, scale 0-100)",[1]; 250 g ai/ha,95
same,"Pre-emerge crop damage RICE (phytotoxicity rating, scale 0-100)",[2]; 63 g ai/ha,95
same,"Pre-emerge crop damage RICE (phytotoxicity rating, scale 0-100)",[2]; 250 g ai/ha,100
same,Post-emerge Herbicidal Activity CORN (crop damage),[3]; 63 g ai/ha,20
same,Post-emerge Herbicidal Activity CORN (crop damage),[3]; 250 g ai/ha,80
same,Post-emerge Herbicidal Activity RICE (crop damage),[4]; 63 g ai/ha,30
same,Post-emerge Herbicidal Activity RICE (crop damage),[4]; 250 g ai/ha,80
same,"Pre-emerge Herbicidal Activity ECHCG (phytotoxicity rating, scale 0-100)",[5]; 63 g ai/ha,90
same,"Pre-emerge Herbicidal Activity ECHCG (phytotoxicity rating, scale 0-100)",[5]; 250 g ai/ha,100
same,"Pre-emerge Herbicidal Activity IPOHE (phytotoxicity rating, scale 0-100)",[6]; 63 g ai/ha,100
same,"Pre-emerge Herbicidal Activity IPOHE (phytotoxicity rating, scale 0-100)",[6]; 250 g ai/ha,100
same,"Pre-emerge Herbicidal Activity AMBEL (phytotoxicity rating, scale 0-100)",[7]; 63 g ai/ha,100
same,"Pre-emerge Herbicidal Activity AMBEL (phytotoxicity rating, scale 0-100)",[7]; 250 g ai/ha,100
same,"Pre-emerge Herbicidal Activity ABUTH (phytotoxicity rating, scale 0-100)",[8]; 63 g ai/ha,100
same,"Pre-emerge Herbicidal Activity ABUTH (phytotoxicity rating, scale 0-100)",[8]; 250 g ai/ha,100
same,"Pre-emerge Herbicidal Activity SETVI (phytotoxicity rating, scale 0-100)",[9]; 63 g ai/ha,100
same,"Pre-emerge Herbicidal Activity SETVI (phytotoxicity rating, scale 0-100)",[9]; 250 g ai/ha,100
same,"Pre-emerge Herbicidal Activity DIGSA (phytotoxicity rating, scale 0-100)",[10]; 63 g ai/ha,100
same,"Pre-emerge Herbicidal Activity DIGSA (phytotoxicity rating, scale 0-100)",[10]; 250 g ai/ha,100
same,"Pre-emerge Herbicidal Activity CHEAL (phytotoxicity rating, scale 0-100)",[11]; 63 g ai/ha,100
same,"Pre-emerge Herbicidal Activity CHEAL (phytotoxicity rating, scale 0-100)",[11]; 250 g ai/ha,100
same,"Pre-emerge Herbicidal Activity SORHA (phytotoxicity rating, scale 0-100)",[12]; 63 g ai/ha,95
same,"Pre-emerge Herbicidal Activity SORHA (phytotoxicity rating, scale 0-100)",[12]; 250 g ai/ha,100
same,"Pre-emerge Herbicidal Activity CASOB (phytotoxicity rating, scale 0-100)",[13]; 63 g ai/ha,80
same,"Pre-emerge Herbicidal Activity CASOB (phytotoxicity rating, scale 0-100)",[13]; 250 g ai/ha,100
same,"Pre-emerge Herbicidal Activity AMARE (phytotoxicity rating, scale 0-100)",[14]; 63 g ai/ha,100
same,"Pre-emerge Herbicidal Activity AMARE (phytotoxicity rating, scale 0-100)",[14]; 250 g ai/ha,100
same,Post-emerge Herbicidal Activity ECHCG,[15]; 63 g ai/ha,30
same,Post-emerge Herbicidal Activity ECHCG,[15]; 250 g ai/ha,70
same,Post-emerge Herbicidal Activity IPOHE,[16]; 63 g ai/ha,100
same,Post-emerge Herbicidal Activity IPOHE,[16]; 250 g ai/ha,100
same,Post-emerge Herbicidal Activity AMBEL,[17]; 63 g ai/ha,70
same,Post-emerge Herbicidal Activity AMBEL,[17]; 250 g ai/ha,85
same,Post-emerge Herbicidal Activity ABUTH,[18]; 63 g ai/ha,100
same,Post-emerge Herbicidal Activity ABUTH,[18]; 250 g ai/ha,100
same,Post-emerge Herbicidal Activity SETVI,[19]; 63 g ai/ha,30
same,Post-emerge Herbicidal Activity SETVI,[19]; 250 g ai/ha,90
same,Post-emerge Herbicidal Activity DIGSA,[20]; 63 g ai/ha,0
same,Post-emerge Herbicidal Activity DIGSA,[20]; 250 g ai/ha,75
same,Post-emerge Herbicidal Activity CHEAL,[21]; 63 g ai/ha,100
same,Post-emerge Herbicidal Activity CHEAL,[21]; 250 g ai/ha,100
same,Post-emerge Herbicidal Activity AMARE,[22]; 63 g ai/ha,100
same,Post-emerge Herbicidal Activity AMARE,[22]; 250 g ai/ha,100
same,Post-emerge Herbicidal Activity SORHA,[23]; 63 g ai/ha,10
same,Post-emerge Herbicidal Activity SORHA,[23]; 250 g ai/ha,90
same,Post-emerge Herbicidal Activity CASOB,[24]; 63 g ai/ha,30
same,Post-emerge Herbicidal Activity CASOB,[24]; 250 g ai/ha,70

# Reference: patent US6355799B1, “Substituted benzene compounds, process for their preparation, and herbicidal and defoliant compositions containing them” (ISK Americas Incorporated, priority 1997, dated 2002)
